According to ChEMBL document CHEMBL1201862, “PubChem BioAssay data set” (2004):
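In this assay, cells in 96-well plates receive the compound at five concentrations for 48 hours. Endpoints are linearly interpolated between the surrounding concentrations. GI50 is the concentration that inhibits growth by half.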 Active and inactive are the calls of the source. No stated cut-off is given here; in the data, active = GI50 up to about 1.1 µM and inactive = higher.

Experiments:
Assay in all cases: NCI anticancer screen, dose series, 48 h
[1] = system: SK-MEL-5
[2] = system: A549
[3] = system: NCI-H226
[4] = system: SNB-75
[5] = system: NCI-H460
[6] = system: EKVX
[7] = system: NCI-H23
[8] = system: SW-620
[9] = system: CCRF-CEM
[10] = system: A498
[11] = system: CAKI-1
[12] = system: HOP-92
[13] = system: NCI-H522
[14] = system: 786-0
[15] = system: XF498
[16] = system: UACC-257
[17] = system: ACHN
[18] = system: OVCAR-5
[19] = system: SN12C
[20] = system: RPMI-8226
[21] = system: DMS-114
[22] = system: SNB-19
[23] = system: U-251
[24] = system: M19-MEL
[25] = system: MOLT-4
[26] = system: IGROV-1
[27] = system: LXFL 529
[28] = system: OVCAR-3
[29] = system: KM-20L2
[30] = system: KM12
[31] = system: Malme-3M
[32] = system: LOX IMVI
[33] = system: OVCAR-4
[34] = system: DLD-1
[35] = system: SK-MEL-2
[36] = system: SF-268
[37] = system: M14
[38] = system: HT-29
[39] = system: SK-MEL-28
[40] = system: RXF 631
[41] = system: HOP-18
[42] = system: SF-295
[43] = system: UO-31
[44] = system: HCT-116
[45] = system: UACC-62
[46] = system: K562
[47] = system: SNB-78
[48] = system: COLO 205
[49] = system: OVCAR-8
[50] = system: HL-60
[51] = system: HCT-15
[52] = system: SK-OV-3
[53] = system: HOP-62
[54] = system: DMS-273
[55] = system: TK-10
[56] = system: HCC 2998
[57] = system: SF-539
[58] = system: RXF 393

CCOC(=O)[C@@]1(C)C=C2O[C@@H]3OC4(CCCCC4)O[C@@H]3C2=C2C(O)=CC=C(O)[C@]21C(=O)OC
GI50 [1]: > 68.1 µM (inactive)
GI50 [2]: > 68.1 µM (inactive)
GI50 [3]: > 68.1 µM (inactive)
GI50 [4]: > 68.1 µM (inactive)
GI50 [5]: > 68.1 µM (inactive)
GI50 [6]: > 68.1 µM (inactive)
GI50 [7]: > 68.1 µM (inactive)
GI50 [8]: > 68.1 µM (inactive)
GI50 [9]: > 68.1 µM (inactive)
GI50 [10]: > 68.1 µM (inactive)
GI50 [11]: 51.4 µM (inactive)
GI50 [12]: 13.4 µM (inactive)
GI50 [13]: > 68.1 µM (inactive)
GI50 [14]: > 68.1 µM (inactive)
GI50 [15]: > 68.1 µM (inactive)
GI50 [16]: > 68.1 µM (inactive)
GI50 [17]: > 68.1 µM (inactive)
GI50 [18]: > 68.1 µM (inactive)
GI50 [19]: > 68.1 µM (inactive)
GI50 [20]: 38.6 µM (inactive)
GI50 [21]: > 68.1 µM (inactive)
GI50 [22]: > 68.1 µM (inactive)
GI50 [23]: > 68.1 µM (inactive)
GI50 [24]: > 68.1 µM (inactive)
GI50 [25]: 33.7 µM (inactive)
GI50 [26]: > 68.1 µM (inactive)
GI50 [27]: > 68.1 µM (inactive)
GI50 [28]: > 68.1 µM (inactive)
GI50 [29]: > 68.1 µM (inactive)
GI50 [30]: > 68.1 µM (inactive)
GI50 [31]: > 68.1 µM (inactive)
GI50 [32]: > 68.1 µM (inactive)
GI50 [33]: > 68.1 µM (inactive)
GI50 [34]: > 68.1 µM (inactive)
GI50 [35]: > 68.1 µM (inactive)
GI50 [36]: > 68.1 µM (inactive)
GI50 [37]: 20.7 µM (inactive)
GI50 [38]: > 68.1 µM (inactive)
GI50 [39]: > 68.1 µM (inactive)
GI50 [40]: > 68.1 µM (inactive)
GI50 [41]: > 68.1 µM (inactive)
GI50 [42]: > 68.1 µM (inactive)
GI50 [43]: > 68.1 µM (inactive)
GI50 [44]: > 68.1 µM (inactive)
GI50 [45]: > 68.1 µM (inactive)
GI50 [46]: 51.1 µM (inactive)
GI50 [47]: > 68.1 µM (inactive)
GI50 [48]: > 68.1 µM (inactive)
GI50 [49]: > 68.1 µM (inactive)
GI50 [50]: 33 µM (inactive)
GI50 [51]: > 68.1 µM
GI50 [52]: > 68.1 µM (inactive)
GI50 [53]: > 68.1 µM (inactive)
GI50 [54]: > 68.1 µM (inactive)
GI50 [55]: > 68.1 µM (inactive)
GI50 [56]: > 68.1 µM (inactive)

CC(C)c1ccc(/C=C/c2cc(C(=O)NNC(=O)NC3CCCCC3)nc(S)n2)cc1
GI50 [1]: > 100 µM (inactive)
GI50 [2]: > 100 µM (inactive)
GI50 [3]: > 100 µM (inactive)
GI50 [4]: > 100 µM (inactive)
GI50 [5]: > 100 µM (inactive)
GI50 [6]: > 100 µM (inactive)
GI50 [7]: > 100 µM (inactive)
GI50 [8]: > 100 µM (inactive)
GI50 [10]: > 100 µM (inactive)
GI50 [11]: > 100 µM (inactive)
GI50 [12]: > 100 µM (inactive)
GI50 [13]: > 100 µM (inactive)
GI50 [14]: > 100 µM (inactive)
GI50 [15]: > 100 µM (inactive)
GI50 [16]: > 100 µM (inactive)
GI50 [17]: > 100 µM (inactive)
GI50 [18]: > 100 µM (inactive)
GI50 [19]: > 100 µM (inactive)
GI50 [20]: > 100 µM (inactive)
GI50 [21]: > 100 µM (inactive)
GI50 [22]: > 100 µM (inactive)
GI50 [23]: > 100 µM (inactive)
GI50 [24]: > 100 µM (inactive)
GI50 [57]: > 100 µM (inactive)
GI50 [26]: > 100 µM (inactive)
GI50 [27]: > 100 µM (inactive)
GI50 [58]: > 100 µM (inactive)
GI50 [28]: > 100 µM (inactive)
GI50 [29]: > 100 µM (inactive)
GI50 [30]: > 100 µM (inactive)
GI50 [31]: > 100 µM (inactive)
GI50 [32]: > 100 µM (inactive)
GI50 [33]: > 100 µM (inactive)
GI50 [34]: > 100 µM (inactive)
GI50 [36]: > 100 µM (inactive)
GI50 [37]: > 100 µM (inactive)
GI50 [38]: > 100 µM (inactive)
GI50 [39]: > 100 µM (inactive)
GI50 [40]: > 100 µM (inactive)
GI50 [41]: > 100 µM (inactive)
GI50 [42]: > 100 µM (inactive)
GI50 [43]: > 100 µM (inactive)
GI50 [44]: > 100 µM (inactive)
GI50 [45]: > 100 µM (inactive)
GI50 [47]: > 100 µM (inactive)
GI50 [48]: > 100 µM (inactive)
GI50 [49]: > 100 µM (inactive)
GI50 [51]: > 100 µM
GI50 [52]: > 100 µM (inactive)
GI50 [53]: > 100 µM (inactive)
GI50 [54]: > 100 µM (inactive)
GI50 [55]: > 100 µM (inactive)
GI50 [56]: > 100 µM (inactive)

O=C1C=CC(=O)C12CCc1ccccc12
GI50 [1]: > 100 µM (inactive)
GI50 [2]: > 100 µM (inactive)
GI50 [3]: > 100 µM (inactive)
GI50 [4]: 51.2 µM (inactive)
GI50 [5]: > 100 µM (inactive)
GI50 [6]: > 100 µM (inactive)
GI50 [7]: > 100 µM (inactive)
GI50 [8]: 64.7 µM (inactive)
GI50 [9]: 28.5 µM (inactive)
GI50 [10]: > 100 µM (inactive)
GI50 [11]: > 31.6 µM (inactive)
GI50 [12]: > 100 µM (inactive)
GI50 [13]: 16.7 µM (inactive)
GI50 [14]: > 100 µM (inactive)
GI50 [15]: > 100 µM (inactive)
GI50 [16]: > 100 µM (inactive)
GI50 [17]: > 100 µM (inactive)
GI50 [18]: > 100 µM (inactive)
GI50 [19]: > 100 µM (inactive)
GI50 [20]: 12.1 µM (inactive)
GI50 [21]: > 100 µM (inactive)
GI50 [22]: > 100 µM (inactive)
GI50 [23]: > 100 µM (inactive)
GI50 [24]: > 100 µM (inactive)
GI50 [25]: > 44.3 µM (inactive)
GI50 [57]: > 100 µM (inactive)
GI50 [26]: > 100 µM (inactive)
GI50 [27]: > 100 µM (inactive)
GI50 [58]: > 94.6 µM (inactive)
GI50 [28]: > 100 µM (inactive)
GI50 [29]: > 100 µM (inactive)
GI50 [30]: > 100 µM (inactive)
GI50 [31]: > 100 µM (inactive)
GI50 [32]: > 60.8 µM (inactive)
GI50 [33]: > 100 µM (inactive)
GI50 [34]: > 63.8 µM (inactive)
GI50 [35]: > 100 µM (inactive)
GI50 [36]: > 100 µM (inactive)
GI50 [37]: > 100 µM (inactive)
GI50 [38]: > 95.3 µM (inactive)
GI50 [39]: > 100 µM (inactive)
GI50 [40]: > 100 µM (inactive)
GI50 [41]: > 33.2 µM (inactive)
GI50 [42]: > 31.6 µM (inactive)
GI50 [43]: > 100 µM (inactive)
GI50 [44]: > 100 µM (inactive)
GI50 [45]: > 100 µM (inactive)
GI50 [46]: 36.4 µM (inactive)
GI50 [47]: > 100 µM (inactive)
GI50 [48]: 57.5 µM (inactive)
GI50 [49]: > 100 µM (inactive)
GI50 [50]: 24.2 µM (inactive)
GI50 [51]: > 72.8 µM
GI50 [52]: > 100 µM (inactive)
GI50 [53]: > 100 µM (inactive)
GI50 [54]: > 100 µM (inactive)
GI50 [55]: > 100 µM (inactive)
GI50 [56]: > 100 µM (inactive)
